According to PubChem BioAssay AID2060891 (Molecular Pharmacology Branch, DTP, NCI, 2025):

Test system: K98450-129-R-PDC complex spheroid growth, percent test/control
Assay: Anticancer human tumor K98450-129-R-PDC patient-derived colon adenocarcinoma cell line growth inhibition [RAS]
Conditions: for IC50: curve of first compound; for viability, T/C: stronger effect = lower value
Summary of the method: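 Tumour cells grown as complex spheroids with HUVEC endothelial cells and mesenchymal stem cells, treated with RAS pathway inhibitor combinations. Each agent spans half-log steps from near clinical Cmax, or 10 microM where Cmax is unknown.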

[1] = second compound 0.00316 µM, first compound 0.0316 µM
[2] = second compound 0.00316 µM, first compound 0.1 µM
[3] = second compound 0.00316 µM, first compound 0.316 µM
[4] = second compound 0.00316 µM, first compound 1 µM
[5] = second compound 0.00316 µM, first compound 3.16 µM
[6] = second compound 0.00316 µM, first compound 10 µM
[7] = second compound 0.01 µM, first compound 0.0316 µM
[8] = second compound 0.01 µM, first compound 0.1 µM
[9] = second compound 0.01 µM, first compound 0.316 µM
[10] = second compound 0.01 µM, first compound 1 µM
[11] = second compound 0.01 µM, first compound 3.16 µM
[12] = second compound 0.01 µM, first compound 10 µM
[13] = second compound 0.0316 µM, first compound 0.0316 µM
[14] = second compound 0.0316 µM, first compound 0.1 µM
[15] = second compound 0.0316 µM, first compound 0.316 µM
[16] = second compound 0.0316 µM, first compound 1 µM
[17] = second compound 0.0316 µM, first compound 3.16 µM
[18] = second compound 0.0316 µM, first compound 10 µM
[19] = second compound 0.1 µM, first compound 0.0316 µM
[20] = second compound 0.1 µM, first compound 0.1 µM
[21] = second compound 0.1 µM, first compound 0.316 µM
[22] = second compound 0.1 µM, first compound 1 µM
[23] = second compound 0.1 µM, first compound 3.16 µM
[24] = second compound 0.1 µM, first compound 10 µM
[25] = second compound 0.316 µM, first compound 0.0316 µM
[26] = second compound 0.316 µM, first compound 0.1 µM
[27] = second compound 0.316 µM, first compound 0.316 µM
[28] = second compound 0.316 µM, first compound 1 µM
[29] = second compound 0.316 µM, first compound 3.16 µM
[30] = second compound 0.316 µM, first compound 10 µM
[31] = second compound 1 µM, first compound 0.0316 µM
[32] = second compound 1 µM, first compound 0.1 µM
[33] = second compound 1 µM, first compound 0.316 µM
[34] = second compound 1 µM, first compound 1 µM
[35] = second compound 1 µM, first compound 3.16 µM
[36] = second compound 1 µM, first compound 10 µM
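Note: spheroids exposed to agents for seven days before the viability readout.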
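Throughout, for viability, T/C: luminescence used as a proxy for viable cell amount.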

## CC(C)NCC(C(=O)N1CCN(c2ncnc3c2C(C)CC3O)CC1)c1ccc(Cl)cc1 (stereo unspecified) + C=CC(=O)N1CCN(c2nc(OCC3CCCN3C)nc3c(F)c(-c4nc(N)cc(C)c4C(F)(F)F)c(Cl)cc23)C(C)C1
Second compound 0.00316 µM
  IC50: > 10000 nM
Second compound 0.01 µM
  IC50: > 10000 nM
Second compound 0.0316 µM
  IC50: > 10000 nM
Second compound 0.1 µM
  IC50: > 10000 nM
Second compound 0.316 µM
  IC50: < 31.6 nM
Second compound 1 µM
  IC50: < 31.6 nM
[1]
  viability, T/C: 94.4%
[2]
  viability, T/C: 97.7%
[3]
  viability, T/C: 94.8%
[4]
  viability, T/C: 93.2%
[5]
  viability, T/C: 91.4%
[6]
  viability, T/C: 91.2%
[7]
  viability, T/C: 89.3%
[8]
  viability, T/C: 81.3%
[9]
  viability, T/C: 85.1%
[10]
  viability, T/C: 84.6%
[11]
  viability, T/C: 83.8%
[12]
  viability, T/C: 85.3%
[13]
  viability, T/C: 70%
[14]
  viability, T/C: 63.7%
[15]
  viability, T/C: 65.9%
[16]
  viability, T/C: 67.3%
[17]
  viability, T/C: 75%
[18]
  viability, T/C: 75.5%
[19]
  viability, T/C: 53.1%
[20]
  viability, T/C: 52.5%
[21]
  viability, T/C: 53.7%
[22]
  viability, T/C: 57%
[23]
  viability, T/C: 54.8%
[24]
  viability, T/C: 49.6%
[25]
  viability, T/C: 38.3%
[26]
  viability, T/C: 42.1%
[27]
  viability, T/C: 41%
[28]
  viability, T/C: 43.7%
[29]
  viability, T/C: 42.6%
[30]
  viability, T/C: 36.4%
[31]
  viability, T/C: 31.4%
[32]
  viability, T/C: 32.7%
[33]
  viability, T/C: 35.9%
[34]
  viability, T/C: 32.1%
[35]
  viability, T/C: 32.7%
[36]
  viability, T/C: 29%

## CC(C)n1nc(-c2ccc3oc(N)nc3c2)c2c(N)ncnc21 + C=CC(=O)N1CCN(c2nc(OCC3CCCN3C)nc3c(F)c(-c4nc(N)cc(C)c4C(F)(F)F)c(Cl)cc23)C(C)C1
Second compound 0.00316 µM
  IC50: > 100 nM
Second compound 0.01 µM
  IC50: > 100 nM
Second compound 0.0316 µM
  IC50: 17.8 nM
Second compound 0.1 µM
  IC50: 1.5 nM
Second compound 0.316 µM
  IC50: < 0.316 nM
Second compound 1 µM
  IC50: < 0.316 nM
Second compound 0.00316 µM, first compound 0.000316 µM
  viability, T/C: 90.9%
Second compound 0.00316 µM, first compound 0.001 µM
  viability, T/C: 85.2%
Second compound 0.00316 µM, first compound 0.00316 µM
  viability, T/C: 87.9%
Second compound 0.00316 µM, first compound 0.01 µM
  viability, T/C: 82.4%
[1]
  viability, T/C: 76.5%
[2]
  viability, T/C: 56.9%
Second compound 0.01 µM, first compound 0.000316 µM
  viability, T/C: 75.9%
Second compound 0.01 µM, first compound 0.001 µM
  viability, T/C: 78.9%
Second compound 0.01 µM, first compound 0.00316 µM
  viability, T/C: 75%
Second compound 0.01 µM, first compound 0.01 µM
  viability, T/C: 70%
[7]
  viability, T/C: 61.2%
[8]
  viability, T/C: 51.6%
Second compound 0.0316 µM, first compound 0.000316 µM
  viability, T/C: 70.2%
Second compound 0.0316 µM, first compound 0.001 µM
  viability, T/C: 58.8%
Second compound 0.0316 µM, first compound 0.00316 µM
  viability, T/C: 62.3%
Second compound 0.0316 µM, first compound 0.01 µM
  viability, T/C: 52.3%
[13]
  viability, T/C: 47.1%
[14]
  viability, T/C: 40.5%
Second compound 0.1 µM, first compound 0.000316 µM
  viability, T/C: 54.7%
Second compound 0.1 µM, first compound 0.001 µM
  viability, T/C: 51%
Second compound 0.1 µM, first compound 0.00316 µM
  viability, T/C: 46.1%
Second compound 0.1 µM, first compound 0.01 µM
  viability, T/C: 44.3%
[19]
  viability, T/C: 33.9%
[20]
  viability, T/C: 27.2%
Second compound 0.316 µM, first compound 0.000316 µM
  viability, T/C: 38.8%
Second compound 0.316 µM, first compound 0.001 µM
  viability, T/C: 37%
Second compound 0.316 µM, first compound 0.00316 µM
  viability, T/C: 33.1%
Second compound 0.316 µM, first compound 0.01 µM
  viability, T/C: 30.9%
[25]
  viability, T/C: 25.7%
[26]
  viability, T/C: 20.1%
Second compound 1 µM, first compound 0.000316 µM
  viability, T/C: 29.1%
Second compound 1 µM, first compound 0.001 µM
  viability, T/C: 27.5%
Second compound 1 µM, first compound 0.00316 µM
  viability, T/C: 33.5%
Second compound 1 µM, first compound 0.01 µM
  viability, T/C: 25%
[31]
  viability, T/C: 21.4%
[32]
  viability, T/C: 17.6%

## C[C@@H](NC(=O)c1ncnc(N)c1Cl)c1ncc(C(=O)Nc2cc(C(F)(F)F)c(Cl)cn2)s1 + C=CC(=O)N1CCN(c2nc(OCC3CCCN3C)nc3c(F)c(-c4nc(N)cc(C)c4C(F)(F)F)c(Cl)cc23)C(C)C1
Second compound 0.00316 µM
  IC50: > 10000 nM
Second compound 0.01 µM
  IC50: > 10000 nM
Second compound 0.0316 µM
  IC50: > 10000 nM
Second compound 0.1 µM
  IC50: > 10000 nM
Second compound 0.316 µM
  IC50: < 31.6 nM
Second compound 1 µM
  IC50: < 31.6 nM
[1]
  viability, T/C: 101%
[2]
  viability, T/C: 98.6%
[3]
  viability, T/C: 102%
[4]
  viability, T/C: 108%
[5]
  viability, T/C: 115%
[6]
  viability, T/C: 94%
[7]
  viability, T/C: 91.2%
[8]
  viability, T/C: 92.5%
[9]
  viability, T/C: 89.5%
[10]
  viability, T/C: 97.4%
[11]
  viability, T/C: 94.3%
[12]
  viability, T/C: 80.1%
[13]
  viability, T/C: 76.3%
[14]
  viability, T/C: 80.2%
[15]
  viability, T/C: 76.3%
[16]
  viability, T/C: 77.2%
[17]
  viability, T/C: 80%
[18]
  viability, T/C: 65.1%
[19]
  viability, T/C: 63.8%
[20]
  viability, T/C: 66.6%
[21]
  viability, T/C: 59.2%
[22]
  viability, T/C: 64.8%
[23]
  viability, T/C: 69.9%
[24]
  viability, T/C: 56.3%
[25]
  viability, T/C: 44.2%
[26]
  viability, T/C: 50.4%
[27]
  viability, T/C: 52.1%
[28]
  viability, T/C: 49.9%
[29]
  viability, T/C: 57%
[30]
  viability, T/C: 46.1%
[31]
  viability, T/C: 37.1%
[32]
  viability, T/C: 41.3%
[33]
  viability, T/C: 44.6%
[34]
  viability, T/C: 44.6%
[35]
  viability, T/C: 49.7%
[36]
  viability, T/C: 43.5%
